From ChEMBL document CHEMBL6114995, “Discovery of novel imidazo[1,2-b]pyridazine derivatives as potent covalent inhibitors of CDK12/13” (Eur J Med Chem, 2025)
Values belong to the compound of their own block, whether it stands above or below them. Calls of active or inactive are those of the source. The calls are words filed in the database; no cut-off is given here.

How the values were obtained:
MDA-MB-231 [1] = assay: cells; conditions: Homo sapiens, MDA-MB-231, 96 h
Description: Antiproliferative activity against human MDA-MB-231 cells assessed as inhibition of cell growth incubated for 96 hrs cellcounting-lite analysis

[2] = biological target: T1, Cyclin-dependent kinase 12 (Homo sapiens, UniProt Q9NYV4); assay: Inhibition of CDK12 in human MDA-MB-231 cells assessed as reduction in RNA Pol II CTD level at Ser2 residue at 2000 nM incubated for 4 hrs by Western blot analysis; format: cell-based
Target sequence in this assay (Q9NYV4 whole entry, looked up): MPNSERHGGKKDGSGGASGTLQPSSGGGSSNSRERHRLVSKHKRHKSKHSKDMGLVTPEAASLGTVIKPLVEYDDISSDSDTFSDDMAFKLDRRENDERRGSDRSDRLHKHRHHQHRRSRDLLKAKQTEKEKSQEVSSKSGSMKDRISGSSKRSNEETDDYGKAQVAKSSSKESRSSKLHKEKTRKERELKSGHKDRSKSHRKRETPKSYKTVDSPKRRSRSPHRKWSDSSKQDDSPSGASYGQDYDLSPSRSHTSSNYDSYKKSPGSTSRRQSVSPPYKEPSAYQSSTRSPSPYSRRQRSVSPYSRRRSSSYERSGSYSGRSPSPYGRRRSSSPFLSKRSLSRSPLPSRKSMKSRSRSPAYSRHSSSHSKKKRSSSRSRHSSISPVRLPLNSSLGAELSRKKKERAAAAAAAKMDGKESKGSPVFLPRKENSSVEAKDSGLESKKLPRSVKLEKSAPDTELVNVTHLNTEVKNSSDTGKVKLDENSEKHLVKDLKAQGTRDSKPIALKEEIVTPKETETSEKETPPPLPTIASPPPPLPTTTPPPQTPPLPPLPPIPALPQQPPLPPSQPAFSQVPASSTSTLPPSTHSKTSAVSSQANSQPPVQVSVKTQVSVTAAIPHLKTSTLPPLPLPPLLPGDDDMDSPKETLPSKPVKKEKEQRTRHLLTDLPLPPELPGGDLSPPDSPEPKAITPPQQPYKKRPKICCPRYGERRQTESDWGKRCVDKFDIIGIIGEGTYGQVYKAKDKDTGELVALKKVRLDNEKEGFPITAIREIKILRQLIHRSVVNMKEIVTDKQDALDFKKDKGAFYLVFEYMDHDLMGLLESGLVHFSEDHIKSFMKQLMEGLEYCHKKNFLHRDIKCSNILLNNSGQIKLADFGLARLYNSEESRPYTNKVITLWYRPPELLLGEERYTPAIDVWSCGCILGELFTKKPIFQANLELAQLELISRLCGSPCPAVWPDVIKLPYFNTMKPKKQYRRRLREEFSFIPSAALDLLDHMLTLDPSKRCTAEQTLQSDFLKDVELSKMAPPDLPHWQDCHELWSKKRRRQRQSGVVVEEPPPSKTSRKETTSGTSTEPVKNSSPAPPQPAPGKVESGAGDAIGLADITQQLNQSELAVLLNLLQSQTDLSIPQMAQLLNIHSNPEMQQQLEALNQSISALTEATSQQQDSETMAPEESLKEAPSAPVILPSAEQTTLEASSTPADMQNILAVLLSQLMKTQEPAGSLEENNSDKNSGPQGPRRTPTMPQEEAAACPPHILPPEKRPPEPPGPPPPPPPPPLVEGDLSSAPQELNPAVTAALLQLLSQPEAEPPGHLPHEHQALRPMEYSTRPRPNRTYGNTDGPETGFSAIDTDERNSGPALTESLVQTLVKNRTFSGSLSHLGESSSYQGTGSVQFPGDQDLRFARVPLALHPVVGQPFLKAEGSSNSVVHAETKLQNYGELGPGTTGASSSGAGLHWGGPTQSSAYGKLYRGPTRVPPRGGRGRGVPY

[3] = biological target: T1, Cyclin-dependent kinase 12; assay: Inhibition of CDK12 in human MDA-MB-231 cells incubated for 4 hrs; format: cell-based
Target sequence in this assay (Q9NYV4 whole entry, looked up): as above

[4] = biological target: Cyclin-dependent kinase 13 (Homo sapiens, UniProt Q14004); assay: Inhibition of CDK13 (unknown origin) using GSRTPMY-NH2 as substrate in presence of ATP by ADP-glo assay
MDA-MB-231 [5] = assay: Effect on FANCI mRNA level in human MDA-MB-231 cells at 50 nM incubated for 6 hrs by qRT-PCR analysis; format: functional, cell-based
MDA-MB-231 [6] = assay: Effect on SMARCC1 mRNA level in human MDA-MB-231 cells at 50 nM incubated for 6 hrs by qRT-PCR analysis; format: functional, cell-based
[7] = biological target: T1, Cyclin-dependent kinase 12; assay: Inhibition of CDK12 in human MDA-MB-231 cells pretreated with compound for 4 hrs followed by compound washout measured after 3 days; format: cell-based
Target sequence in this assay (Q9NYV4 whole entry): as the sequence (Q9NYV4 whole entry, looked up) above

MDA-MB-231 [8] = assay: Effect on BRCA1 mRNA level in human MDA-MB-231 cells at 50 nM incubated for 6 hrs by qRT-PCR analysis; format: functional, cell-based
[9] = biological target: T1, Cyclin-dependent kinase 12; conditions: dose 200.0 nM
Target sequence in this assay (Q9NYV4 whole entry, looked up): as above
Description: Inhibition of CDK12 (unknown origin) at 200 nM relative to control

MDA-MB-231 [10] = assay: Effect on ATR mRNA level in human MDA-MB-231 cells at 50 nM incubated for 6 hrs by qRT-PCR analysis; format: functional, cell-based
MDA-MB-468 = assay: cells; conditions: Homo sapiens, MDA-MB-468, 96 h
Description: Antiproliferative activity against human MDA-MB-468 cells assessed as inhibition of cell growth incubated for 96 hrs cellcounting-lite analysis

MDA-MB-231 [11] = assay: Effect on cleaved PARP level in human MDA-MB-231 cells at 50 nM incubated for 24 hrs by Western blot analysis; format: functional, cell-based
[12] = biological target: T1, Cyclin-dependent kinase 12; assay: Inhibition of CDK12 in human MDA-MB-231 cells incubated for 10 hrs; format: cell-based
Target sequence in this assay (Q9NYV4 whole entry): as the sequence (Q9NYV4 whole entry, looked up) above

[13] = biological target: T1, Cyclin-dependent kinase 12; conditions: MDA-MB-231, dose 200.0 nM, time 4.0 hrs
Target sequence in this assay (Q9NYV4 whole entry, looked up): as above

MDA-MB-231 [14] = assay: Effect on ATM level in human MDA-MB-231 cells at 50 nM incubated for 24 hrs by Western blot analysis; format: functional, cell-based
[15] = biological target: T1, Cyclin-dependent kinase 12; assay: Irreversible inhibition of CDK12 in human MDA-MB-231 cells at 100 nM pretreated with compound for 4 hrs followed by compound washout measured after 6 hrs; format: cell-based
Target sequence in this assay (Q9NYV4 whole entry, looked up): as above

[16] = biological target: T1, Cyclin-dependent kinase 12; assay: Inhibition of CDK12 (unknown origin) using GSRTPMY-NH2 as substrate in presence of ATP by ADP-glo assay
Target sequence in this assay (Q9NYV4 whole entry): as the sequence (Q9NYV4 whole entry, looked up) above

[17] = biological target: T1, Cyclin-dependent kinase 12; conditions: dose 20.0 nM
Target sequence in this assay (Q9NYV4 whole entry, looked up): as above
Description: Inhibition of CDK12 (unknown origin) at 20 nM relative to control

MDA-MB-231 [18] = assay: Effect on ATM mRNA level in human MDA-MB-231 cells at 50 nM incubated for 6 hrs by qRT-PCR analysis; format: functional, cell-based
[19] = biological target: T1, Cyclin-dependent kinase 12; conditions: dose 2000.0 nM
Description: Inhibition of CDK12 (unknown origin) at 2000 nM relative to control

MDA-MB-231 [20] = assay: Effect on FANCD2 mRNA level in human MDA-MB-231 cells at 50 nM incubated for 6 hrs by qRT-PCR analysis; format: functional, cell-based
[21] = biological target: T1, Cyclin-dependent kinase 12; assay: Binding affinity to CDK12 (714 to 1069 residues) in HEK293T cells assessed as increase in thermal stability at 5 uM measured for 6 hrs by cellular thermal shift assay; format: cell-based
MDA-MB-231 [22] = assay: Effect on RAD51 mRNA level in human MDA-MB-231 cells at 50 nM incubated for 6 hrs by qRT-PCR analysis; format: functional, cell-based
[23] = biological target: T1, Cyclin-dependent kinase 12; assay: Inhibition of full length FLAG-tagged CDK12 (unknown origin) at Cys1039 residue expressed in HEK293T cells at 50 uM incubated for 2 hrs by mass spectrometry analysis; format: cell-based
MDA-MB-231 [24] = assay: Effect on alpha-tubulin level in human MDA-MB-231 cells at 50 nM incubated for 24 hrs by Western blot analysis; format: functional, cell-based
[25] = biological target: T1, Cyclin-dependent kinase 12; assay: Inhibition of CDK12 in human MDA-MB-231 cells at 100 nM measured upto 6 hrs by Western blot analysis; format: cell-based
MDA-MB-231 [26] = assay: Effect on RAD51 level in human MDA-MB-231 cells at 50 nM incubated for 24 hrs by Western blot analysis; format: functional, cell-based
[27] = biological target: T1, Cyclin-dependent kinase 12; assay: Inhibition of CDK12 in human MDA-MB-231 cells incubated for 4 hrs by immunoblotting analysis; format: cell-based
[28] = biological target: T1, Cyclin-dependent kinase 12; assay: Irreversible inhibition of CDK12 in human MDA-MB-231 cells at 10 uM pretreated with compound for 4 hrs followed by compound washout measured after 6 hrs; format: cell-based
[29] = biological target: T1, Cyclin-dependent kinase 12; assay: Inhibition of CDK12 in human MDA-MB-231 cells assessed as reduction in RNA Pol II CTD level at Ser2 residue at 10 uM incubated for 4 hrs by Western blot analysis; format: cell-based
[30] = biological target: Protein cereblon/Cyclin-K (Homo sapiens, UniProt O75909+Q96SW2); assay: PROTAC activity at CRBN/Cyclin K in human MDA-MB-231 cells assessed as reduction in cyclin K level incubated for 4 hrs by Western blot analysis; format: cell-based
Chain of Protein cereblon/Cyclin-K (O75909 whole entry): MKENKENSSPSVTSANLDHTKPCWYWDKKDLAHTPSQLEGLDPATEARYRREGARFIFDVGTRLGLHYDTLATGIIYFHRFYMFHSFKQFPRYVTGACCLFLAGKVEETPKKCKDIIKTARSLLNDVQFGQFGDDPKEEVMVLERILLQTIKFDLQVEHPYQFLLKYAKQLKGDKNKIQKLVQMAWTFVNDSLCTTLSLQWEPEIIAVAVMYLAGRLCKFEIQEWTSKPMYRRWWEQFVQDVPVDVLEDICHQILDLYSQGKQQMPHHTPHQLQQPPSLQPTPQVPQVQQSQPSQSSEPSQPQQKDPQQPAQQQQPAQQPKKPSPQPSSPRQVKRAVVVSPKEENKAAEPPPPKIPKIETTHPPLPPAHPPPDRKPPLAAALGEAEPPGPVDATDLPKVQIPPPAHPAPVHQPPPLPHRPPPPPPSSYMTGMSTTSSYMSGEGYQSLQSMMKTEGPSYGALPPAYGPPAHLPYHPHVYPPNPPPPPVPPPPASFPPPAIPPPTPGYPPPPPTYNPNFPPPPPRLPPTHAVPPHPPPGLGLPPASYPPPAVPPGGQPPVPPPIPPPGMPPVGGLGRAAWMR
Chain of Protein cereblon/Cyclin-K (Q96SW2 whole entry): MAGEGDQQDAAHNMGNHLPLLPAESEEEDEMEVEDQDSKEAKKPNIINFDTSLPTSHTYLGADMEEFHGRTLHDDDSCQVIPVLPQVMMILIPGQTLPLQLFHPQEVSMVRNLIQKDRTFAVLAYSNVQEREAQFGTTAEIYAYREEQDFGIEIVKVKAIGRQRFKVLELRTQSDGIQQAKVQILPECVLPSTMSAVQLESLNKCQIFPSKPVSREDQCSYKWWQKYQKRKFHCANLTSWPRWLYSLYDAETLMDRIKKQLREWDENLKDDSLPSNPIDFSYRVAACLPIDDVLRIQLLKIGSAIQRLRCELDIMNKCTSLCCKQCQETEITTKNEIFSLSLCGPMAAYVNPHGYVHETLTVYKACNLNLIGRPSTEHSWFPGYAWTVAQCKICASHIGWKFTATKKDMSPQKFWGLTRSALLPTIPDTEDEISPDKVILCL

Chain of Cyclin-dependent kinase 13 (Q14004 whole entry): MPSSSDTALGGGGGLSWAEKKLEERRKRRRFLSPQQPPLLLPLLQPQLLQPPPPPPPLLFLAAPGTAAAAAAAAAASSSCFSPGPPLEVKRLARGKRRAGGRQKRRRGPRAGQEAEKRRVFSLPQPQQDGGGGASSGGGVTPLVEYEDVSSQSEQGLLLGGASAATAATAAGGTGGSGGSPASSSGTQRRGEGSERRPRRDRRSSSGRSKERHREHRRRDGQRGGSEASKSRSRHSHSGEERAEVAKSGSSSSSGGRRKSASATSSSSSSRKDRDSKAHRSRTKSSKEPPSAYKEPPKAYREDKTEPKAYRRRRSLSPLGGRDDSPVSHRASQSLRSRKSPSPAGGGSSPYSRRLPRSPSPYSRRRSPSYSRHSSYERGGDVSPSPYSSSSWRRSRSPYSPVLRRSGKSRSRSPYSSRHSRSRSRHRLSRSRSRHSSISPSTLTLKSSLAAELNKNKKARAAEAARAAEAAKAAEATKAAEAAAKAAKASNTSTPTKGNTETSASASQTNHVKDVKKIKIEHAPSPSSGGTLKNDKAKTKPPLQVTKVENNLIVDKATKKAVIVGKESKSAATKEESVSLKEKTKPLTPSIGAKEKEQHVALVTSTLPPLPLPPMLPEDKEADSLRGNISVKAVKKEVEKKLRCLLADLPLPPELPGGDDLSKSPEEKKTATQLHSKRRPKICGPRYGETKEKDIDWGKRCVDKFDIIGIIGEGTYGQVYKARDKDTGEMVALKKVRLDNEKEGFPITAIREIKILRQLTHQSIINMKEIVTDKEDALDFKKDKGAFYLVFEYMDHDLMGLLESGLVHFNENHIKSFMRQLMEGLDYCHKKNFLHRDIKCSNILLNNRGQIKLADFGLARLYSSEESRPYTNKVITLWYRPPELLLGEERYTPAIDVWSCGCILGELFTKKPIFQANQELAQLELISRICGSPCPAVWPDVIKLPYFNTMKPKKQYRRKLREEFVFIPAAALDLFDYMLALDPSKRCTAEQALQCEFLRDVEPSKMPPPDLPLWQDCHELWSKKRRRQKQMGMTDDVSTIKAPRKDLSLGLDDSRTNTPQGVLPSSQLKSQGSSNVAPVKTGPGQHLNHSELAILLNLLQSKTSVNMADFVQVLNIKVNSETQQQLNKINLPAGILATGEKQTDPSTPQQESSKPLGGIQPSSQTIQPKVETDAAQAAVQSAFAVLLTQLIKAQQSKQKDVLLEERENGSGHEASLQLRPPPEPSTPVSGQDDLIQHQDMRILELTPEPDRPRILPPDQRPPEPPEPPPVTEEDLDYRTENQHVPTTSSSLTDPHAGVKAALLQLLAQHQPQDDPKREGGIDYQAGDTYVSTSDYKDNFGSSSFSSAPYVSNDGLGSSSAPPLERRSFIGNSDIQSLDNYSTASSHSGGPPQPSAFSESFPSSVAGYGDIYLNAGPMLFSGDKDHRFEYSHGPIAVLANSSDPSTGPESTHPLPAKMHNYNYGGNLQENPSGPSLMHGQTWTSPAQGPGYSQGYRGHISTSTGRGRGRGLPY

- EC50 (MDA-MB-231 [1]): 5 nM
- inhibition [2]: Active
- inhibition [3]: Active
- IC50 [4]: 12.2 nM
- EC50 [7]: 40 nM
- inhibition [9]: 93%
- EC50 (MDA-MB-468): 6 nM
- EC50 [12]: 5.38 nM
- inhibition [13]: 100%
- inhibition [15]: Active
- IC50 [16]: 15.5 nM
- inhibition [17]: 73.8%
- inhibition [19]: 92.5%
- Activity [21]: Active
- inhibition [23]: Active
- inhibition [25]: Active
- inhibition [27]: Active
Structure (SMILES): C=CC(=O)Nc1ccc(-c2ccc3nc(CC(=O)Nc4cc(C5CCC5)[nH]n4)cn3n2)cc1F
- Activity (MDA-MB-231 [5]): Active
- Activity (MDA-MB-231 [6]): Active
- Activity (MDA-MB-231 [8]): Active
- Activity (MDA-MB-231 [10]): Active
- Activity (MDA-MB-231 [11]): Active
- Activity (MDA-MB-231 [14]): Active
- Activity (MDA-MB-231 [18]): Active
- Activity (MDA-MB-231 [20]): Active
- Activity (MDA-MB-231 [22]): Active
- Activity (MDA-MB-231 [24]): Active
- Activity (MDA-MB-231 [26]): Active

- EC50 (MDA-MB-231 [1]): 46.4 nM
- EC50 (MDA-MB-468): 40.9 nM
Structure (SMILES): C=CC(=O)Nc1ccc(-c2ccc3nc(CC(=O)Nc4cc(C5CC5)[nH]n4)cn3n2)cc1OC

- EC50 (MDA-MB-231 [1]): 67.3 nM
- EC50 (MDA-MB-468): 36.4 nM
Structure (SMILES): C=CC(=O)Nc1ccc(-c2ccc3nc(CC(=O)Nc4cc(C5CC5)[nH]n4)cn3n2)cc1

- EC50 (MDA-MB-231 [1]): 126 nM
- EC50 (MDA-MB-468): 28.3 nM
Structure (SMILES): C=CC(=O)Nc1cccc(-c2ccc3nc(CC(=O)Nc4cc(C5CC5)[nH]n4)cn3n2)c1

- EC50 (MDA-MB-468): 4520 nM
Structure (SMILES): C=CC(=O)Nc1ccc(-c2ccc3nc(CC(=O)Nc4cc(C)ns4)cn3n2)cc1F

- inhibition [28]: Active
- inhibition [29]: Active
Structure (SMILES): CCC(=O)Nc1ccc(-c2ccc3nc(CC(=O)Nc4cc(C5CCC5)[nH]n4)cn3n2)cc1F

- EC50 (MDA-MB-231 [1]): 219 nM
- EC50 (MDA-MB-468): 354 nM
Structure (SMILES): C=CC(=O)Nc1ccc(-c2ccc3nc(CC(=O)Nc4ncc(C(C)(C)C)s4)cn3n2)cc1F

- EC50 (MDA-MB-231 [1]): 26.3 nM
- inhibition [9]: 92.7%
- EC50 (MDA-MB-468): 6.9 nM
- IC50 [16]: 14.1 nM
- inhibition [17]: 59.7%
- inhibition [19]: 93.1%
Structure (SMILES): CN(C)C/C=C/C(=O)Nc1ccc(C(=O)N2CCC[C@@H](Nc3ncc(Cl)c(-c4c[nH]c5ccccc45)n3)C2)cc1

- EC50 (MDA-MB-231 [1]): 75.9 nM
- EC50 (MDA-MB-468): 36.2 nM
Structure (SMILES): C=CC(=O)Nc1c(C)cc(-c2ccc3nc(CC(=O)Nc4cc(C5CC5)[nH]n4)cn3n2)cc1C

- EC50 (MDA-MB-231 [1]): 2920 nM
Structure (SMILES): C=CC(=O)Nc1ccc(-c2ccc3nc(CC(=O)Nc4cc(C)no4)cn3n2)cc1F

- EC50 (MDA-MB-231 [1]): 3040 nM
- EC50 (MDA-MB-468): 1300 nM
Structure (SMILES): C=CC(=O)Nc1ccc(-c2ccc3nc(CC(=O)Nc4nc(C)cs4)cn3n2)cc1F

- EC50 (MDA-MB-231 [1]): 352 nM
- EC50 (MDA-MB-468): 504 nM
Structure (SMILES): C=CC(=O)Nc1ccccc1-c1ccc2nc(CC(=O)Nc3cc(C4CC4)[nH]n3)cn2n1

- EC50 (MDA-MB-231 [1]): 84.9 nM
- EC50 (MDA-MB-468): 47.9 nM
Structure (SMILES): C=CC(=O)Nc1ccc(-c2ccc3nc(CC(=O)Nc4cc(C5CC5)[nH]n4)cn3n2)cc1Cl

- EC50 (MDA-MB-231 [1]): 131 nM
- EC50 (MDA-MB-468): 196 nM
Structure (SMILES): C=CC(=O)Nc1c(F)cc(-c2ccc3nc(CC(=O)Nc4cc(C5CC5)[nH]n4)cn3n2)cc1F

- EC50 (MDA-MB-231 [1]): 30.3 nM
- EC50 (MDA-MB-468): 13.5 nM
Structure (SMILES): C=CC(=O)Nc1ccc(-c2ccc3nc(CC(=O)Nc4cc(C5CC5)[nH]n4)cn3n2)cc1C

- EC50 (MDA-MB-468): 7260 nM
Structure (SMILES): C=CC(=O)Nc1ccc(-c2ccc3nc(CC(=O)Nc4nc(C5CC5)cs4)cn3n2)cc1F

- EC50 (MDA-MB-231 [1]): 20.7 nM
- EC50 (MDA-MB-468): 20.3 nM
Structure (SMILES): Cn1cc(-n2cnc3c(NCc4nc5cc(Cl)c(Cl)cc5[nH]4)nc(N4CCOCC4)nc32)cn1

- EC50 (MDA-MB-231 [1]): 120 nM
- inhibition [9]: 80.7%
- EC50 (MDA-MB-468): 108 nM
- IC50 [16]: 34.2 nM
- inhibition [17]: 29.9%
- inhibition [19]: 92.1%
Structure (SMILES): C=CC(=O)Nc1ccc(-c2ccc3nc(CC(=O)Nc4ncc(CC)s4)cn3n2)cc1F

- EC50 (MDA-MB-231 [1]): 3140 nM
- EC50 (MDA-MB-468): 1160 nM
Structure (SMILES): C=CC(=O)Nc1ccc(-c2ccc3nc(CC(=O)Nc4nc(C)c(C)s4)cn3n2)cc1F

- DC50 [30]: 0.38 nM
Structure (SMILES): CCN(CC)CC(=O)N1CCN(c2nc(NCc3nc4cc(Cl)c(Cl)cc4[nH]3)c3ncn(CC)c3n2)CC1

- EC50 (MDA-MB-231 [1]): 424 nM
- EC50 (MDA-MB-468): 608 nM
Structure (SMILES): C=CC(=O)Nc1ccc(-c2ccc3nc(CC(=O)Nc4ncc(C(C)C)s4)cn3n2)cc1F

- EC50 (MDA-MB-231 [1]): 2860 nM
Structure (SMILES): C=CC(=O)Nc1ccc(-c2ccc3nc(CC(=O)Nc4cc(C(C)(C)C)on4)cn3n2)cc1F

- EC50 (MDA-MB-231 [1]): 14.3 nM
- EC50 (MDA-MB-468): 10.1 nM
Structure (SMILES): C=CC(=O)Nc1ccc(-c2ccc3nc(CC(=O)Nc4cc(C5CC5)[nH]n4)cn3n2)cc1F
- Activity (MDA-MB-231 [5]): Active
- Activity (MDA-MB-231 [6]): Active
- Activity (MDA-MB-231 [8]): Active
- Activity (MDA-MB-231 [10]): Active
- Activity (MDA-MB-231 [11]): Active
- Activity (MDA-MB-231 [14]): Active
- Activity (MDA-MB-231 [18]): Active
- Activity (MDA-MB-231 [20]): Active
- Activity (MDA-MB-231 [22]): Active
- Activity (MDA-MB-231 [24]): Active
- Activity (MDA-MB-231 [26]): Active
